From ChEMBL document CHEMBL5352433, “Design, synthesis, and biological evaluation of low-toxic lappaconitine derivatives as potential analgesics” (Eur J Med Chem, 2022)

Experiments:
[1] = biological target: T1, Voltage-gated inwardly rectifying potassium channel KCNH2 (Homo sapiens, UniProt Q12809); assay: Inhibition of hERG expressed in HEK cells assessed as Rb+ efflux ratio at 1 mg/L incubated for 4 mins (reference value: 79.71 to 94.98 %); format: toxicity, cell-based; parameters: scale not given: the % may be the effect or the level left; settings: at 1 µg/mL
T1 sequence (Q12809 whole entry): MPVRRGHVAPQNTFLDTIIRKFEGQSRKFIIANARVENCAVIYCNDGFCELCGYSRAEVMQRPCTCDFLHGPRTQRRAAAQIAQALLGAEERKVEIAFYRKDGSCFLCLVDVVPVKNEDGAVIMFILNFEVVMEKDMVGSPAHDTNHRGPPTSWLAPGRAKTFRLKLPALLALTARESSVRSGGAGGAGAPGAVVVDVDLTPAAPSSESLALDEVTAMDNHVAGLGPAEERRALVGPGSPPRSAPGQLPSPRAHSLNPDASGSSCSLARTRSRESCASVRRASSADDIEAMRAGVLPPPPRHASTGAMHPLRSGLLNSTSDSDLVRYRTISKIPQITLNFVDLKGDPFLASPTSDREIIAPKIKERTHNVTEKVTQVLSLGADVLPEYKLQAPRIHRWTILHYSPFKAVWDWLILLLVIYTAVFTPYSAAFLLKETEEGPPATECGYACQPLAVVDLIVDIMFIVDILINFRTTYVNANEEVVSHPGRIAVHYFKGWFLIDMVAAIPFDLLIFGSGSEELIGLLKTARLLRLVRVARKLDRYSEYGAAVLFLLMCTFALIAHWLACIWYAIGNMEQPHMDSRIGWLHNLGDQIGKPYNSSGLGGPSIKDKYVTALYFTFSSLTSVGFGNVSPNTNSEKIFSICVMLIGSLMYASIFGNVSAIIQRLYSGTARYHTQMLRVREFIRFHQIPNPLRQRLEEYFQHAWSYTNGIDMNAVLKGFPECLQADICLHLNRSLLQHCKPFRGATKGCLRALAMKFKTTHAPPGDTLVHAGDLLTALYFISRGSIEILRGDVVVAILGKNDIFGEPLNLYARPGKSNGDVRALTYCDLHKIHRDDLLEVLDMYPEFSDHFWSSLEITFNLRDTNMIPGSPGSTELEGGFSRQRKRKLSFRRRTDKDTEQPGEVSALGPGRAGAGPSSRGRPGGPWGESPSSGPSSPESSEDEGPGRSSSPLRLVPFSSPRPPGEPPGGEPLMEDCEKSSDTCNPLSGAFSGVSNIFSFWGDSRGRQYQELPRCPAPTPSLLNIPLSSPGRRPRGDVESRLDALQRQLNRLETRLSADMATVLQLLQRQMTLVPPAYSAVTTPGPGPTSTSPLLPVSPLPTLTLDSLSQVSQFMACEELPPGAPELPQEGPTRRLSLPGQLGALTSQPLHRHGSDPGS

[2] = biological target: T1, Voltage-gated inwardly rectifying potassium channel KCNH2; assay: Inhibition of hERG expressed in HEK cells assessed as Rb+ efflux ratio at 10 mg/L incubated for 4 mins (reference value: 79.71 to 94.98 %); format: toxicity, cell-based; parameters: scale not given: the % may be the effect or the level left; settings: at 10 µg/mL
[3] = biological target: T1, Voltage-gated inwardly rectifying potassium channel KCNH2; assay: Inhibition of hERG expressed in HEK cells assessed as Rb+ efflux ratio at 100 mg/L incubated for 4 mins (reference value: 79.71 to 94.98 %); format: toxicity, cell-based; parameters: scale not given: the % may be the effect or the level left; settings: at 100 µg/mL
Mus musculus [4] = assay: Analgesic activity against acetic acid-induced Kunming writhing mouse model assessed as inhibition of writhing at 3.5 mg/kg, sc pretreated with compound for 15 mins followed by acetic acid addition and measured after 15 mins relative to control; format: functional; settings: 0.5 h, time 30 min
[5] = Acute toxicity in sc dosed Kunming mouse assessed as mortality rate measured after 24 hrs; format: organism-based; settings: in vivo
Mus musculus [6] = assay: Analgesic activity against sc dosed acetic acid-induced Kunming writhing mouse model assessed as inhibition of writhing pretreated with compound for 15 mins followed by acetic acid addition and measured after 15 mins; format: functional; settings: 0.5 h, time 30 min
Mus musculus [7] = assay: Analgesic activity against acetic acid-induced Kunming writhing mouse model assessed as inhibition of writhing at 10 mg/kg, sc pretreated with compound for 15 mins followed by acetic acid addition and measured after 15 mins relative to control; format: functional; settings: 0.5 h, time 30 min
[8] = Therapeutic index, ratio of LD50 for acute toxicity in sc dosed Kunming mouse to ratio of ED50 for analgesic activity against sc dosed acetic acid-induced Kunming writhing mouse model; format: organism-based; settings: in vivo, read-out: TI

Compound | inhibition in vivo at 10 mg/kg (Mus musculus [7]) [%] | also measured
CCN1C[C@]2(OC(=O)c3ccccc3N)CC[C@H](OC)[C@]34C1[C@H](C[C@H]23)[C@@]1(O)C[C@H](OC)[C@H]2C[C@@H]4[C@]1(O)[C@H]2OC |  | Activity [1]: 96.05%; Activity [2]: 92.35%; Activity [3]: 65.7%
CCN1C[C@]2(OC(=O)c3ccccc3NC(C)=O)CC[C@H](OC)[C@]34C1[C@H](C[C@H]23)[C@@]1(O)C[C@H](OC)[C@H]2C[C@@H]4[C@]1(O)[C@H]2OC |  | inhibition in vivo at 3.5 mg/kg (Mus musculus [4]): 56.6%; LD50 at 24 h [5]: 11.7 mg/kg; ED50 (Mus musculus [6]): 3.5 mg/kg
CCN1C[C@]2(OC(=O)c3ccccc3NS(=O)(=O)c3ccccc3[N+](=O)[O-])CC[C@H](OC)[C@]34C1[C@H](C[C@H]23)[C@@]1(O)C[C@H](OC)[C@H]2C[C@@H]4[C@]1(O)[C@H]2OC | 58.5 | 
CCN1C[C@]2(OC(=O)c3ccccc3NS(=O)(=O)c3cccs3)CC[C@H](OC)[C@]34C1[C@H](C[C@H]23)[C@@]1(O)C[C@H](OC)[C@H]2C[C@@H]4[C@]1(O)[C@H]2OC | 1 | 
CCN1C[C@]2(OC(=O)c3ccccc3NC(=O)c3ccc(OC(C)C)cc3)CC[C@H](OC)[C@]34C1[C@H](C[C@H]23)[C@@]1(O)C[C@H](OC)[C@H]2C[C@@H]4[C@]1(O)[C@H]2OC | 51.1 | selectivity ratio [8]: 24.2; LD50 at 24 h [5]: 196 mg/kg; ED50 (Mus musculus [6]): 8.1 mg/kg
CCN1C[C@]2(OC(=O)c3ccccc3NS(=O)(=O)c3cccc(C(F)(F)F)c3)CC[C@H](OC)[C@]34C1[C@H](C[C@H]23)[C@@]1(O)C[C@H](OC)[C@H]2C[C@@H]4[C@]1(O)[C@H]2OC | 12.8 | 
CCN1C[C@]2(OC(=O)c3ccccc3NS(=O)(=O)c3cccc(C)c3)CC[C@H](OC)[C@]34C1[C@H](C[C@H]23)[C@@]1(O)C[C@H](OC)[C@H]2C[C@@H]4[C@]1(O)[C@H]2OC | 52.1 | 
CCN1C[C@]2(OC(=O)c3ccccc3NS(=O)(=O)c3cccc4cccnc34)CC[C@H](OC)[C@]34C1[C@H](C[C@H]23)[C@@]1(O)C[C@H](OC)[C@H]2C[C@@H]4[C@]1(O)[C@H]2OC | 42.4 | 
CCN1C[C@]2(OC(=O)c3ccccc3NS(=O)(=O)c3cc(F)c(F)cc3F)CC[C@H](OC)[C@]34C1[C@H](C[C@H]23)[C@@]1(O)C[C@H](OC)[C@H]2C[C@@H]4[C@]1(O)[C@H]2OC | 26 | 
CCN1C[C@]2(OC(=O)c3ccccc3NS(=O)(=O)c3cccnc3)CC[C@H](OC)[C@]34C1[C@H](C[C@H]23)[C@@]1(O)C[C@H](OC)[C@H]2C[C@@H]4[C@]1(O)[C@H]2OC | 32.3 | 
CCN1C[C@]2(OC(=O)c3ccccc3NC(=O)C3CC3)CC[C@H](OC)[C@]34C1[C@H](C[C@H]23)[C@@]1(O)C[C@H](OC)[C@H]2C[C@@H]4[C@]1(O)[C@H]2OC |  | inhibition in vivo at 3.5 mg/kg (Mus musculus [4]): 33.5%
CCN1C[C@]2(OC(=O)c3ccccc3NS(=O)(=O)c3cccc4ccccc34)CC[C@H](OC)[C@]34C1[C@H](C[C@H]23)[C@@]1(O)C[C@H](OC)[C@H]2C[C@@H]4[C@]1(O)[C@H]2OC | 49.3 | 
CCN1C[C@]2(OC(=O)c3ccccc3NS(=O)(=O)c3cccc([N+](=O)[O-])c3)CC[C@H](OC)[C@]34C1[C@H](C[C@H]23)[C@@]1(O)C[C@H](OC)[C@H]2C[C@@H]4[C@]1(O)[C@H]2OC | 6.7 | 
CCN1C[C@]2(OC(=O)c3ccccc3NS(=O)(=O)c3ccc(Cl)s3)CC[C@H](OC)[C@]34C1[C@H](C[C@H]23)[C@@]1(O)C[C@H](OC)[C@H]2C[C@@H]4[C@]1(O)[C@H]2OC | 31.3 | 
CCN1C[C@]2(OC(=O)c3ccccc3NS(=O)(=O)c3cc(OC)ccc3OC)CC[C@H](OC)[C@]34C1[C@H](C[C@H]23)[C@@]1(O)C[C@H](OC)[C@H]2C[C@@H]4[C@]1(O)[C@H]2OC | 65.8 | 
CCN1C[C@]2(OC(=O)c3ccccc3NS(=O)(=O)c3c(C)cc(C)cc3C)CC[C@H](OC)[C@]34C1[C@H](C[C@H]23)[C@@]1(O)C[C@H](OC)[C@H]2C[C@@H]4[C@]1(O)[C@H]2OC | 52.1 | 
CCN1C[C@]2(OC(=O)c3ccccc3NS(=O)(=O)c3ccccc3Br)CC[C@H](OC)[C@]34C1[C@H](C[C@H]23)[C@@]1(O)C[C@H](OC)[C@H]2C[C@@H]4[C@]1(O)[C@H]2OC | 24.7 | 

Compound | inhibition in vivo at 10 mg/kg (Mus musculus [7]) [%] | also measured
CCN1C[C@]2(OC(=O)c3ccccc3NS(=O)(=O)c3ccccc3Cl)CC[C@H](OC)[C@]34C1[C@H](C[C@H]23)[C@@]1(O)C[C@H](OC)[C@H]2C[C@@H]4[C@]1(O)[C@H]2OC | 64.3 | 
CCN1C[C@]2(OC(=O)c3ccccc3NS(=O)(=O)c3ccc(OC)cc3OC)CC[C@H](OC)[C@]34C1[C@H](C[C@H]23)[C@@]1(O)C[C@H](OC)[C@H]2C[C@@H]4[C@]1(O)[C@H]2OC | 34.9 | 
CCN1C[C@]2(OC(=O)c3ccccc3NC(=O)CC(C)(C)C)CC[C@H](OC)[C@]34C1[C@H](C[C@H]23)[C@@]1(O)C[C@H](OC)[C@H]2C[C@@H]4[C@]1(O)[C@H]2OC |  | inhibition in vivo at 3.5 mg/kg (Mus musculus [4]): 24.9%
CCN1C[C@]2(OC(=O)c3ccccc3NS(=O)(=O)c3cccc4c(N(C)C)cccc34)CC[C@H](OC)[C@]34C1[C@H](C[C@H]23)[C@@]1(O)C[C@H](OC)[C@H]2C[C@@H]4[C@]1(O)[C@H]2OC | 42.5 | 
CCN1C[C@]2(OC(=O)c3ccccc3NS(=O)(=O)c3cccc(Br)c3)CC[C@H](OC)[C@]34C1[C@H](C[C@H]23)[C@@]1(O)C[C@H](OC)[C@H]2C[C@@H]4[C@]1(O)[C@H]2OC | 13 | 
CCN1C[C@]2(OC(=O)c3ccccc3NS(=O)(=O)c3cc(Cl)ccc3OC)CC[C@H](OC)[C@]34C1[C@H](C[C@H]23)[C@@]1(O)C[C@H](OC)[C@H]2C[C@@H]4[C@]1(O)[C@H]2OC | 43.2 | 
CCN1C[C@]2(OC(=O)c3ccccc3NS(=O)(=O)c3ccc(OC)c(OC)c3)CC[C@H](OC)[C@]34C1[C@H](C[C@H]23)[C@@]1(O)C[C@H](OC)[C@H]2C[C@@H]4[C@]1(O)[C@H]2OC | 13.7 | 
C/C=C/C(=O)Nc1ccccc1C(=O)O[C@@]12CC[C@H](OC)[C@]34C([C@H](C[C@H]13)[C@@]1(O)C[C@H](OC)[C@H]3C[C@@H]4[C@]1(O)[C@H]3OC)N(CC)C2 |  | inhibition in vivo at 3.5 mg/kg (Mus musculus [4]): 24.4%
CCN1C[C@]2(OC(=O)c3ccccc3NC(=O)c3ccc(OC)cc3)CC[C@H](OC)[C@]34C1[C@H](C[C@H]23)[C@@]1(O)C[C@H](OC)[C@H]2C[C@@H]4[C@]1(O)[C@H]2OC | 62.8 | Activity [1]: 77%; selectivity ratio [8]: 67.4; Activity [2]: 76.58%; LD50 at 24 h [5]: 296 mg/kg; Activity [3]: 69.69%; ED50 (Mus musculus [6]): 4.4 mg/kg
CCN1C[C@]2(OC(=O)c3ccccc3NS(=O)(=O)c3ccccc3C#N)CC[C@H](OC)[C@]34C1[C@H](C[C@H]23)[C@@]1(O)C[C@H](OC)[C@H]2C[C@@H]4[C@]1(O)[C@H]2OC | 53.9 | 
CCN1C[C@]2(OC(=O)c3ccccc3NS(=O)(=O)c3cccc(C#N)c3)CC[C@H](OC)[C@]34C1[C@H](C[C@H]23)[C@@]1(O)C[C@H](OC)[C@H]2C[C@@H]4[C@]1(O)[C@H]2OC | 47.4 | 
CCN1C[C@]2(OC(=O)c3ccccc3NS(=O)(=O)c3ccc4ccccc4c3)CC[C@H](OC)[C@]34C1[C@H](C[C@H]23)[C@@]1(O)C[C@H](OC)[C@H]2C[C@@H]4[C@]1(O)[C@H]2OC | 28.4 | 
CCOc1ccc(C(=O)Nc2ccccc2C(=O)O[C@@]23CC[C@H](OC)[C@]45C([C@H](C[C@H]24)[C@@]2(O)C[C@H](OC)[C@H]4C[C@@H]5[C@]2(O)[C@H]4OC)N(CC)C3)cc1 | 62.8 | Activity [1]: 79.38%; selectivity ratio [8]: 47.7; Activity [2]: 80.07%; LD50 at 24 h [5]: 315 mg/kg; Activity [3]: 76.45%; ED50 (Mus musculus [6]): 6.6 mg/kg
CCCOc1ccc(C(=O)Nc2ccccc2C(=O)O[C@@]23CC[C@H](OC)[C@]45C([C@H](C[C@H]24)[C@@]2(O)C[C@H](OC)[C@H]4C[C@@H]5[C@]2(O)[C@H]4OC)N(CC)C3)cc1 | 48.4 | selectivity ratio [8]: 20.9; LD50 at 24 h [5]: 214 mg/kg; ED50 (Mus musculus [6]): 10.2 mg/kg
CCN1C[C@]2(OC(=O)c3ccccc3NS(=O)(=O)c3ccccc3C(F)(F)F)CC[C@H](OC)[C@]34C1[C@H](C[C@H]23)[C@@]1(O)C[C@H](OC)[C@H]2C[C@@H]4[C@]1(O)[C@H]2OC | 55.2 | 
CCN1C[C@]2(OC(=O)c3ccccc3NS(=O)(=O)c3cccc(OC)c3)CC[C@H](OC)[C@]34C1[C@H](C[C@H]23)[C@@]1(O)C[C@H](OC)[C@H]2C[C@@H]4[C@]1(O)[C@H]2OC | 37.1 | 
CCN1C[C@]2(OC(=O)c3ccccc3NS(=O)(=O)c3cccc(Cl)c3)CC[C@H](OC)[C@]34C1[C@H](C[C@H]23)[C@@]1(O)C[C@H](OC)[C@H]2C[C@@H]4[C@]1(O)[C@H]2OC | 33.1 | 
